Measured values published in patent US20230302031A1, “Modulators Of Purinergic Receptors and Related Immune Checkpoint For Treating Acute Respiratory Distress Syndrome” (priority 2020, published 2023).

Key:
[1] = system: COVID-19 patients with severe inflammatory failure; details: early administration; retrospective study, reference 51; cited from earlier work
[2] = system: SARS-CoV-2; details: reference 50; cited from earlier work
[3] = system: PMA-differentiated THP1 macrophages; assay: LDH release from PMA-differentiated THP1 macrophages; format: cell-based, human; details: treated or not with LPS and ATP; FIG. 5H
[4] = system: PMA-treated THP1 macrophages; assay: IL-10 secretion by PMA-treated THP1 macrophages; format: cell-based, human; details: 100 μM, FIG. 6J
Procedure: (§1) Plasma serum from P2y2^+/+ and P2y2^−/− mice and supernatants harvested from PMA-stimulated THP1 macrophages that were depleted or not for P2Y2 or NLRP3, and/or stimulated with 10 ng/mL LPS during 3 hours and 5 mM ATP during 6 hours or with 20 ng/mL IFNγ, in presence or in absence of 100 μM Suramin, 100 μM OxATP, 100 μM Kaempferol or 100 μM Diquafosol at indicated times were analyzed using western blot or ELISA for IL-1β (Ebioscience) and IL-10 (BD) according to the manufacturers' instructions.

[5] = system: MDMs; format: cell-based, human; details: FIG. 6L, 6M
[6] = system: MDMs; assay: IL-10 secretion by MDMs; format: cell-based, human; details: 100 μM, FIG. 6K
[7] = system: human monocyte derived macrophages (MDMs); assay: IL-1β release from monocyte derived macrophages (MDMs); format: cell-based; details: 100 μM, FIG. 6G
[8] = system: MDMs; assay: IRF5 expression in MDMs (western blot); format: cell-based, human; details: FIG. 6N
[9] = system: PMA-treated THP1 macrophages; assay: IL-1β release from LPS+ATP-stimulated PMA-THP1 macrophages (western blot/ELISA); format: cell-based, human; details: 100 μM compound; 10 ng/mL LPS 3 hours + 5 mM ATP 6 hours; FIG. 6E, 6I
Procedure: Human THP-1 cells were cultured in RPMI 1640 media, supplemented with 10% FBS and differentiated by treatment for 3 hours with 100 nM phorbol-12-myristate-13-acetate (PMA, Invivogen). After 2 days, macrophage THP-1 cells were stimulated first 3 hours with ultrapure LPS from E. coli (10 ng/ml, LPS) and then stimulated for 6 hours with ATP (5 mM, Sigma) or treated with 50 ng or 20 ng of IFNg during 24 or 12 hours as indicated. Then, supernatants and cells were collected for western blot analysis.
Cells or supernatant were lysed in appropriated buffer (250 mM NaCl, 0.1% NP-40, 5 mM EDTA, 10 mM Na3VO4, 10 mM NaF, 5 mM DTT, 3 mM Na4P2O7, 1 mM EGTA, 10 mM Glycerol phosphate, 10 mM Tris-Hcl (pH=7.5) and the protease and phosphatase inhibitors (Roche)). Equal amount of supernatant or 10-40 μg of protein extracts were run on 4-12% or 10% SDS-PAGE and transferred at 4° C. onto a nitrocellulose membrane (0.2 Micron). After incubation for 2 hours at room temperature with 5% nonfat milk or BSA (Bovine Serum Albumine) in Tris-buffered saline and 0.1% Tween 20 (TBS-Tween), membranes were incubated with primary antibody at 4° C. overnight. […] The primary antibodies against. […] Western blots shown are representative of at least of three independent experiments.
as §1

[10] = system: MDMs; assay: Microarray of human macrophage polarization-specific markers in MDMs; format: cell-based; details: 100 μM, 72 hours, FIG. 6Q
Procedure: MDMS were treated with 100 μM Kaempferol during 72 hours. Then, mRNAs were isolated using RNeasy kit (#74104, Quiagen) and gene expression analyses were performed with Agilent® SurePrint G3 Human GE 8x60K Microarray (Agilent Technologies, AMADID 39494) with the following single-color design. RNAs were labeled with Cy3 using the one-color Agilent labeling kit (Low Input Quick Amp Labeling Kit 5190-2306) adapted for small amount of total RNA (100 ng total RNA per reaction). Hybridization were then performed on microarray using 800 ng of linearly amplified cRNA labeled, following the manufacturer protocol (Agilent SureHyb Chamber; 800 ng of labeled extract; duration of hybridization of 17 hours; 40 μL per array; Temperature of 65° C.). […] Microarray images were analyzed by means of Feature Extraction software version (10.7.3.1) from Agitent technologies. […]
Raw data files from Feature Extraction were imported into R with LIMMA (Smyth, 2004, Statistical applications in Genetics and molecular biology, vol 3, N°1, article 3), an R package from the Bioconductor project, and processed as follow: gMedianSignal data were imported, controls probes were systematically removed, and flagged probes (gisSaturated, glsFeatpopnOL, glsFeatNonUnifOL) were set to NA. […] Normalized data were then analyzed. […]

anakinra: IL-1 receptor antagonist
prognosis of COVID-19 patients [1]: significantly improved prognosis of COVID-19 patients with severe inflammatory failure

Ivermectin
replication of SARS-CoV-2 in vitro [2]: inhibit the replication of SARS-CoV-2 in vitro

O=c1c(O)c(-c2ccc(O)cc2)oc2cc(O)cc(O)c12 [Kaempferol]
LDH release (cell death marker) [3]: released the cell death marker, lactate dehydrogenase (LDH)
secretion of IL-10 [4]: reduced secretion of the immunosuppressive cytokine interleukin-10 (IL-10)
membrane expression of CD163 [5]: diminished membrane expression of anti-inflammatory macrophage activation marker CD163
secretion of IL-10 [6]: reduced secretion of the immunosuppressive cytokine interleukin-10 (IL-10)
IL-1β release [7]: increased IL-1β release
expression of IRF5 [8]: increased expression of the pro-inflammatory transcription factor IFN regulatory factor 5 (IRF5)
IL-1β release [9]: increased IL-1β release
known human markers of macrophage activation induced [10]: 90%
